Data: ChEMBL document CHEMBL1201862, “PubChem BioAssay data set” (2004)
Active and inactive are the calls of the source.

Tests used:
Assay type in all cases: functional
[1] = molecular target: Serine/threonine-protein kinase Nek2 (Homo sapiens, UniProt P51955)
[2] = molecular target: Dual specificity tyrosine-phosphorylation-regulated kinase 1A (Homo sapiens, UniProt Q13627);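 further: measured against DYRK1A as one member of a broad kinome profiling panel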
[3] = molecular target: T1, Serine/threonine-protein kinase Chk1 (Homo sapiens, UniProt O14757);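 further: measured as one member of a kinome-wide kinase profiling panel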
T1 sequence (O14757 whole entry): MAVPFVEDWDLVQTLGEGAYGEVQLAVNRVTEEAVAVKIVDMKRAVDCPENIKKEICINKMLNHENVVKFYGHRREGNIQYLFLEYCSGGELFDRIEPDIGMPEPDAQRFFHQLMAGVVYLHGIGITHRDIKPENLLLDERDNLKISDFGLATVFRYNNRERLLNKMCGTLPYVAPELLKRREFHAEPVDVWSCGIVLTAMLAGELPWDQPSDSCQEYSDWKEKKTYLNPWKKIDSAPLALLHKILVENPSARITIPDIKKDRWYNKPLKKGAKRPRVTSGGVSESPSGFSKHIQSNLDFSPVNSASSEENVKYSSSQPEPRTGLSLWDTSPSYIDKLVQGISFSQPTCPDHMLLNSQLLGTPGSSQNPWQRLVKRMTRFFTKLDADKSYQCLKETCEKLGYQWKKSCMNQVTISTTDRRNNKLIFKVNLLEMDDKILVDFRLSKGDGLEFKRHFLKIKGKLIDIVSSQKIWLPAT

[4] = molecular target: Platelet-derived growth factor receptor alpha (Homo sapiens, UniProt P16234); test: Navigating the Kinome. Panel member name: PDGFRA
[5] = molecular target: Cyclin-dependent kinase 5 (Homo sapiens, UniProt Q00535);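 further: CDK5 measured as one member of a kinase profiling panel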
[6] = molecular target: Dual specificity protein kinase CLK4 (Homo sapiens, UniProt Q9HAZ1)
[7] = molecular target: Dual specificity tyrosine-phosphorylation-regulated kinase 1B (Homo sapiens, UniProt Q9Y463); test: Navigating the Kinome. Panel member name: DYRK1B
[8] = molecular target: Leucine-rich repeat serine/threonine-protein kinase 2 (Homo sapiens, UniProt Q5S007);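 further: value from a broad kinome-wide panel profiling study in which LRRK2 was one of the kinases tested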

Measured: Ki

Chain of Serine/threonine-protein kinase Nek2 (P51955 whole entry): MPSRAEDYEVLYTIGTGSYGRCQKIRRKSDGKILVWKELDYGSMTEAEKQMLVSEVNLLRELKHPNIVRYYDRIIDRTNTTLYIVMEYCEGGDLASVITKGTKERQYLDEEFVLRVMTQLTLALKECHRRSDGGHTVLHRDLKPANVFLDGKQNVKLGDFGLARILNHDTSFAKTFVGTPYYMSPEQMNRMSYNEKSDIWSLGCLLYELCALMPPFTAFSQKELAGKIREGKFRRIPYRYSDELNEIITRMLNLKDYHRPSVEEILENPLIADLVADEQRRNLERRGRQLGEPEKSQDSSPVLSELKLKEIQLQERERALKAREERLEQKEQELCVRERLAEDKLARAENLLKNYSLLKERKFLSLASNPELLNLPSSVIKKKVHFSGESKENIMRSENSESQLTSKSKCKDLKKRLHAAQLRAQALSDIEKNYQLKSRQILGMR
Chain of Leucine-rich repeat serine/threonine-protein kinase 2 (Q5S007 whole entry): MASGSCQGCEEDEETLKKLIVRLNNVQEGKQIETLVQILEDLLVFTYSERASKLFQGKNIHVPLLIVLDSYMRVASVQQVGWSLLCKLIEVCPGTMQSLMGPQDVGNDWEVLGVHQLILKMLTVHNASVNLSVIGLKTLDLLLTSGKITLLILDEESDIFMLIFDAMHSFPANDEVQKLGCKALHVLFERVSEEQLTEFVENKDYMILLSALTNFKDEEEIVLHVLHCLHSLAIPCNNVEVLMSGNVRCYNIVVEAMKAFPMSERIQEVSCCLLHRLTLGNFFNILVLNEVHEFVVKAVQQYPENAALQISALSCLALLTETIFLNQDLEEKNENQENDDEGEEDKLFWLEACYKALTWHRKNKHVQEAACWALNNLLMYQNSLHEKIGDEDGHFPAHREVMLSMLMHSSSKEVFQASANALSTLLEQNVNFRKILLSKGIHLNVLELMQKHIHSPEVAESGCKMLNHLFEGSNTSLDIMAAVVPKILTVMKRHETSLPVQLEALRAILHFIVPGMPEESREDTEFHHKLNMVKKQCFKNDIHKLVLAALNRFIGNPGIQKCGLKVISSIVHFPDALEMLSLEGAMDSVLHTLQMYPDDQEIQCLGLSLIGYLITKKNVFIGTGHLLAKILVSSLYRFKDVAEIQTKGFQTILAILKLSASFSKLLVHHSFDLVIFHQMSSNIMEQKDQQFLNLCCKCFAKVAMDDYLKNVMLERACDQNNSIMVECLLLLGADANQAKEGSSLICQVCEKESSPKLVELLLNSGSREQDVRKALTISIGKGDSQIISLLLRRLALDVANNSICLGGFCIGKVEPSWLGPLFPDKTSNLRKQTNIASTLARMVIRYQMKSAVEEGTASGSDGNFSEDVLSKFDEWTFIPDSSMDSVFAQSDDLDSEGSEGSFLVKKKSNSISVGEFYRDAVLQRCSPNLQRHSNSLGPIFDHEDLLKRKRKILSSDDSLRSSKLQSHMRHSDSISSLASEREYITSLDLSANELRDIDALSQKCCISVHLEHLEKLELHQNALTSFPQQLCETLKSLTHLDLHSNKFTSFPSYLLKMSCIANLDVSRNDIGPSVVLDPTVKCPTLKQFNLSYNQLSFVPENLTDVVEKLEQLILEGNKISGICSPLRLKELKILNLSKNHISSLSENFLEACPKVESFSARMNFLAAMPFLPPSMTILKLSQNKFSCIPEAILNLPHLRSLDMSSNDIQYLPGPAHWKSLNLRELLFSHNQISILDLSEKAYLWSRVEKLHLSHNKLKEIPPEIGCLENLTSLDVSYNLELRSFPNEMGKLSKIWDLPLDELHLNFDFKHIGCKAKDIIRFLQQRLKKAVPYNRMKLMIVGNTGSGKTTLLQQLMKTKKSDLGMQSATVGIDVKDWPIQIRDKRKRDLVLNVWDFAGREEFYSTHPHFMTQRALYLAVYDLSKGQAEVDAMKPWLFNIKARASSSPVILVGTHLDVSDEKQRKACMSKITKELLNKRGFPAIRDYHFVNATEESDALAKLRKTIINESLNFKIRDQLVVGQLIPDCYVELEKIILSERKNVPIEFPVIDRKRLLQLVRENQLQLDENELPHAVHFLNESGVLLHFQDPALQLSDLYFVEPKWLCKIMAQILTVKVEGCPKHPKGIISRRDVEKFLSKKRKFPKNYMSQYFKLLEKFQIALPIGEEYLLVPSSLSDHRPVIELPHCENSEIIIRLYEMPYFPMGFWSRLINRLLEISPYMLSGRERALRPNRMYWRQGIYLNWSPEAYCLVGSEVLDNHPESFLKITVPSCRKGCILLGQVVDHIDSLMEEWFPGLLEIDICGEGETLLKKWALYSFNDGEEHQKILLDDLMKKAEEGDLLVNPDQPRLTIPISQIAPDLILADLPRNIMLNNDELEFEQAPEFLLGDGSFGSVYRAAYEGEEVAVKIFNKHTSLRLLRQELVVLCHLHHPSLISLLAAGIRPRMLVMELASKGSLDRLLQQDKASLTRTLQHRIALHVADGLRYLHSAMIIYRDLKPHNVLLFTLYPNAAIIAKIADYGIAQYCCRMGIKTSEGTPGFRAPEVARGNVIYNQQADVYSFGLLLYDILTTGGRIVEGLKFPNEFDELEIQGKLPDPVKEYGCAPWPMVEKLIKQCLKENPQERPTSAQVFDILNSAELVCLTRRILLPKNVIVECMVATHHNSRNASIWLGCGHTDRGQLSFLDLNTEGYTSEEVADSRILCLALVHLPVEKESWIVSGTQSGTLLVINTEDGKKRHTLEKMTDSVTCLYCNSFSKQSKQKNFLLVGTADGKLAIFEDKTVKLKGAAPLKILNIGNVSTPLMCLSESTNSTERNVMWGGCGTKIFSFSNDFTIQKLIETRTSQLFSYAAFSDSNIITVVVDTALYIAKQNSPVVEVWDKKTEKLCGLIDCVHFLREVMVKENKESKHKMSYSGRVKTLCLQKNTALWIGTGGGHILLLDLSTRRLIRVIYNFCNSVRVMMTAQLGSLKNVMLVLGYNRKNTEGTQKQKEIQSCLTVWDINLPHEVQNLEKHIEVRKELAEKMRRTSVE
Chain of Dual specificity protein kinase CLK4 (Q9HAZ1 whole entry): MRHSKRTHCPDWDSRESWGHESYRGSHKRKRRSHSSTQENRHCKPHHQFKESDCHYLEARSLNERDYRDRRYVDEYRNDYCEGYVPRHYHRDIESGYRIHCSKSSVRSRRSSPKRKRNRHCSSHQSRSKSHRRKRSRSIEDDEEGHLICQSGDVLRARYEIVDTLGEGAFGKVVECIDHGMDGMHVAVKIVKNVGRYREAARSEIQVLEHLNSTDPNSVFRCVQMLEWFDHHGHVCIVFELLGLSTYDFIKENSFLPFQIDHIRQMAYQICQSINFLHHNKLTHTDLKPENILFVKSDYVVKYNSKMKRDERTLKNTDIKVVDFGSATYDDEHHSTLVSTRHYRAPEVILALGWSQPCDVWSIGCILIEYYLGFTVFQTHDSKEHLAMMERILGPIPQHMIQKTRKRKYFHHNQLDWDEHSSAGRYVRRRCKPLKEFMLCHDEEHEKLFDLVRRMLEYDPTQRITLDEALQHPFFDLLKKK
Chain of Platelet-derived growth factor receptor alpha (P16234 whole entry): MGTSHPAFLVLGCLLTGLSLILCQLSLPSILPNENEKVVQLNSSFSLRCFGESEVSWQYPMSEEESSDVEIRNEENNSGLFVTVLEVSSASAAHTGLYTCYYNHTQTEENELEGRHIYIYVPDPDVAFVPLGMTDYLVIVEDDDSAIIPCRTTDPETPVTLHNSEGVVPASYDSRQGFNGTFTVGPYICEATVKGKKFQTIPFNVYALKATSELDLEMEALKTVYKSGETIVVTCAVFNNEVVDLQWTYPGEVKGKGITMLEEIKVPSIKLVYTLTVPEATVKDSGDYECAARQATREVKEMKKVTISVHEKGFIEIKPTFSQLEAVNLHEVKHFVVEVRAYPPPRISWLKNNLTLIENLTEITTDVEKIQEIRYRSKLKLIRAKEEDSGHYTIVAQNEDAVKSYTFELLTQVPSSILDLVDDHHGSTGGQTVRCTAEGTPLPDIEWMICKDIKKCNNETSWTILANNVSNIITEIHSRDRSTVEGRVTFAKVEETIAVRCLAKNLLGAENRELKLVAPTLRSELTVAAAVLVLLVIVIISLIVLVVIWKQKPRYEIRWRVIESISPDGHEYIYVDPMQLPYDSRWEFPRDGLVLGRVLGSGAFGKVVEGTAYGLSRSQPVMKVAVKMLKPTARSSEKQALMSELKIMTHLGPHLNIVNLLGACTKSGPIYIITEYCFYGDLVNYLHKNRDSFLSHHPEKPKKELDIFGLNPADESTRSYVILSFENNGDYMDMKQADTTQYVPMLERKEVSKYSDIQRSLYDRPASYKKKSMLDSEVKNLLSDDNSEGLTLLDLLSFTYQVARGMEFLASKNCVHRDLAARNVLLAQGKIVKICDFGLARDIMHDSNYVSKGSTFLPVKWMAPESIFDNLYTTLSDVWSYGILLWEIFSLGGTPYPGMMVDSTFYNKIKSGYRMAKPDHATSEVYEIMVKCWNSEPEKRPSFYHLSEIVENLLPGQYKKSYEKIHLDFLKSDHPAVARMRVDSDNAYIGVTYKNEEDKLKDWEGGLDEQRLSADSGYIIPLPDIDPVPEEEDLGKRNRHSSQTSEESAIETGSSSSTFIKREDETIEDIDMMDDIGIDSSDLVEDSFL
Chain of Cyclin-dependent kinase 5 (Q00535 whole entry): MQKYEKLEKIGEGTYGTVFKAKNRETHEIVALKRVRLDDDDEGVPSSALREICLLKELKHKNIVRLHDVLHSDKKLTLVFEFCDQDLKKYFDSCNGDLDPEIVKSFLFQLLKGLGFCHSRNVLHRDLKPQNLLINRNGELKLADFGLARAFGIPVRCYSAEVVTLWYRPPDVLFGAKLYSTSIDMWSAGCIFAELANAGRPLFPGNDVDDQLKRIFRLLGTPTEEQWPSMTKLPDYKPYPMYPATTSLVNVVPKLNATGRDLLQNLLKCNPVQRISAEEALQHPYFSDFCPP

Cc1cc2c(c(C#N)c1C)OC1(CCCCC1)C(N)C2=O (centres undefined)
active: [1] 5.01 µM | [2] 1.58 µM

Nc1nnc2sc3ccccc3n12
active: [3] 39.8 µM | [4] 63.1 µM | [5] 39.8 µM | [6] 31.6 µM | [7] 63.1 µM | [2] 39.8 µM | [8] 79.4 µM
